One assay has as its system H929 (multiple myeloma). As to the kind of experiment: Cell proliferation inhibition, Cell Titer-Glo, H929. Type of assay: cell-based. The conditions noted are these: Homo sapiens, NCI-H929; cell proliferation assay, H929 cells. The essentials: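 Cells seeded at 2500-5000 per well with serially diluted compound for typically 3 days. Viable cells measured by ATP luminescence (Cell Titer-Glo); IC50 from proliferation-inhibition curves.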
(In general: ATP-based viability assays read luminescence as a measure of living cells.)

The target in a further assay is T1, Jak2 (Homo sapiens, UniProt O60674).
T1 construct: 6×His- or GST-tagged kinase domain fragments of the corresponding RTKs expressed in baculovirus system; host or cells: baculovirus system
As to the kind of experiment: Tyrosine kinase assay (Kinase-Glo or AlphaScreen), Jak2. The conditions noted are these: biochemical tyrosine kinase assay. The gist of the method: (§1)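 Phosphorylation of poly(Glu-Tyr) by baculovirus-made kinase domains, 10 μM ATP, measured either as ATP depletion (Kinase-Glo, 37° C, 1 h) or phosphotyrosine AlphaScreen (room temperature, 30 min plus 60 min with beads).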
Background: In Kinase-Glo more light means more ATP remaining.

Assay [1] deals with HEK293 (human normal embryonic kidney). As to the kind of experiment: Cell proliferation inhibition, Cell Titer-Glo, HEK293. The conditions noted are these: cell proliferation assay, HEK293 cells, read-out: HEK 293 IC50. The format is cell-based. The protocol: (§2) IGF1R and other tyrosine kinase inhibitors can inhibit the proliferation of certain cancer cell lines indicating their possible therapeutic utility for treating the corresponding cancer types. Cancer cell lines of interest and control normal lines, including CHO, HEK293, BA/F3, MM1, H929, COLO205, PC3, DU145, MCF7, Panc1, ACHN, Hep G2, H460, K562, TT, U87-G, CAOV-3, SK-MEL5, Karpas 299, are plated in white, clear-bottomed 384-well cell culture plates at 2500-5000 cells per well and supplied with dilutions of tested compounds After a desired period of time (typically 3 days), the number of viable cells is quantitated by using Cell Titer-Glo Luminescent Cell Viability Assay (Promega), a cell proliferation assay system based on detection of total amount of ATP present as a measure of cell metabolic activity. The plated cells are mixed with the Cell Titer-Glo developing reagent and counted in a luminescence multiwell plate reader according to the standard manufacturer's protocol to generate IC50 curves for cell proliferation inhibition.
(§3) IGF1R and other tyrosine kinase inhibitors can inhibit the proliferation of certain cancer cell lines indicating their possible therapeutic utility for treating the corresponding cancer types. Cancer cell lines of interest and control normal lines, including CHO, HEK293, BA/F3, COLO205, PC3, DU145, MCF7, Panc1, ACHN, Hep G2, H460, K562, TT, U87-MG, CAOV-3, SK-MEL5, Karpas 299 and human multiple myeloma cell lines H929, MM1s, MM1r, UTMC2, CPM2, KMS11, My5, KMS12PE, My7, JJN3, KMS18, U266, SKMM2, RPMI-8226 are plated in white, clear-bottomed 384-well cell culture plates at 2500-5000 cells per well and supplied with dilutions of tested compounds After a desired period of time (typically 3 days), the number of viable cells is quantitated by using Cell Titer-Glo Luminescent Cell Viability Assay (Promega), a cell proliferation assay system based on detection of total amount of ATP present as a measure of cell metabolic activity. The plated cells are mixed with the Cell Titer-Glo developing reagent and counted in a luminescence multiwell plate reader according to the standard manufacturer's protocol to generate IC50 curves for cell proliferation inhibition. Results are typically reported as percent of growth (% viability =(OD72h(compound)−ODday0))/(OD72h(no compound)−ODday0). Alternatively, viable cells are quantitated by using the conventional colorimetric MTT assay. The MTT assay is based on the cleavage of the yellow tetrazolium salt MTT to purple formazan crystal by metabolic active cells. The formazan is then solubilized, and the concentration determined by optical density at 570 nm. The cells plated and incubated with a compound as described above are supplemented with the solution of MTT and incubated for 2-3 hours. The growth medium is removed and dimethyl sulfoxide is added into each well to dissolve the formazan. The absorbance is measured on an ELISA plate reader with a test wavelength of 570 nm and a background subtraction wavelength of 630 nm to obtain sample signal (OD570-OD630). […] The results are reported in terms of IC50 value for a particular compound and a cell line in the standard 3-day proliferation assay using Cell Titer-Glo. […] The results are reported in terms of IC50 value for a particular compound and a cell line in the standard 3-day proliferation assay using MTT assay.

Assay [2] deals with CHO (chinese hamster ovary). As to the kind of experiment: Cell proliferation inhibition, Cell Titer-Glo, CHO. The conditions noted are these: Cricetulus griseus; cell proliferation assay, CHO cells. The format is cell-based. The protocol:
as §2, §3

In another assay the target is T2, IGF1R tyrosine kinase (Homo sapiens, UniProt P08069).
T2 construct: 6×His- or GST-tagged kinase domain fragments of the corresponding RTKs expressed in baculovirus system; host or cells: baculovirus system
As to the kind of experiment: IGF1R tyrosine kinase assay (Kinase-Glo ATP depletion or PT66/PT100 AlphaScreen). The conditions noted are these: biochemical tyrosine kinase assay. The gist of the method:
as §1

Another assay has as its target T3, Alk (Homo sapiens, UniProt Q9UM73).
T3 construct: 6×His- or GST-tagged kinase domain fragments of the corresponding RTKs expressed in baculovirus system; host or cells: baculovirus system
As to the kind of experiment: Tyrosine kinase assay (Kinase-Glo or AlphaScreen), Alk. The conditions noted are these: biochemical tyrosine kinase assay. The gist of the method:
as §1

Another assay concerns the target T4, InsR (Homo sapiens, UniProt P06213).
T4 construct: 6×His- or GST-tagged kinase domain fragments of the corresponding RTKs expressed in baculovirus system; host or cells: baculovirus system
As to the kind of experiment: Tyrosine kinase assay (Kinase-Glo or AlphaScreen), InsR. The conditions noted are these: biochemical tyrosine kinase assay. The essentials: as §1

SMILES strings stand for the structures. A value given as a limit tells only on which side of the number the result lay.

T4 sequence (P06213 1023-1298 limits assumed, species assumed): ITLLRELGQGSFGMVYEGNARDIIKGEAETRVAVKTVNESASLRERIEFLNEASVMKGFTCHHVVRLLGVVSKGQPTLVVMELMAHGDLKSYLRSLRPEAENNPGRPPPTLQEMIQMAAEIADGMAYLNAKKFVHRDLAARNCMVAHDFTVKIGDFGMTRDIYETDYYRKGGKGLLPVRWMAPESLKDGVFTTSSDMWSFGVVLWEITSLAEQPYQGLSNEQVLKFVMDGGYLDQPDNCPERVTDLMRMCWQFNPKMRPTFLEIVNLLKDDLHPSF
T1 sequence (O60674 849-1124 limits assumed, species assumed): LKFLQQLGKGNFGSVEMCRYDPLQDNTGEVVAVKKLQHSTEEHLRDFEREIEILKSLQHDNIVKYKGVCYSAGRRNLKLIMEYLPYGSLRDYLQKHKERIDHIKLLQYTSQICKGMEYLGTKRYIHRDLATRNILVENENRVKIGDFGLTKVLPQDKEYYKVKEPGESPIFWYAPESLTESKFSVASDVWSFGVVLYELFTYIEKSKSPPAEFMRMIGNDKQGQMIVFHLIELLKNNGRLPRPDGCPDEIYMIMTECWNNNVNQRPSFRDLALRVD
T3 sequence (Q9UM73 1116-1392 limits assumed, species assumed): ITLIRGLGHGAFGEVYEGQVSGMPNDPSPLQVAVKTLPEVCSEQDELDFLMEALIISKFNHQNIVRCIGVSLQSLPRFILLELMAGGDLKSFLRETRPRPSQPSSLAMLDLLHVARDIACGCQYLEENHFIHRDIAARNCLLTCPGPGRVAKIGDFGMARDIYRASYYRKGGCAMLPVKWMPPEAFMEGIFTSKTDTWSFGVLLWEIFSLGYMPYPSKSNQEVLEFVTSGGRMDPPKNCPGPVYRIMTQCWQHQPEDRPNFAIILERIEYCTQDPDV
T2 sequence (P08069 999-1274 limits assumed): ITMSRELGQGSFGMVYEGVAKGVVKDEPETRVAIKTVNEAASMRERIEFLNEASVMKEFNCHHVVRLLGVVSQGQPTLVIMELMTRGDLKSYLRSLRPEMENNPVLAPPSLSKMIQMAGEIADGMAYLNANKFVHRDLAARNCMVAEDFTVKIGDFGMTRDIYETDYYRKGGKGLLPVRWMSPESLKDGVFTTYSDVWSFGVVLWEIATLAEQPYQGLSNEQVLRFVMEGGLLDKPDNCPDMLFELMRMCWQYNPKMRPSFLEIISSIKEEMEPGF

With `CN1CCC(N2Cc3cc4[nH]c(-c5c(NC[C@@H](O)COc6ccc(F)cc6Br)cc[nH]c5=O)nc4cc3C2=O)CC1` [compound 165], the IC50 (in general, the midpoint of a concentration-inhibition curve) in the assay with H929 (multiple myeloma) was 0.5 to 5 µM; against Jak2 it was below 0.5 µM; in assay [1], above 15 µM; in assay [2], 5 to 15 µM; at IGF1R tyrosine kinase it was below 0.5 µM; at Alk, 0.5 to 5 µM. Also, the IC50 against InsR is below 0.5 µM.

On to `CCc1cc2c(cc1OC[C@H](O)CNc1cc[nH]c(=O)c1-c1nc3cc4c(cc3[nH]1)C(=O)N(C1CCN(C)CC1)C4)OCO2` [compound 156], for which the IC50 with H929 (multiple myeloma) is 5 to 15 µM; on Jak2, below 0.5 µM; in assay [2], above 15 µM; at IGF1R tyrosine kinase it was below 0.5 µM; on Alk it was 0.5 to 5 µM; against InsR, below 0.5 µM.

`COc1cccc(OC[C@H](O)CNc2cc[nH]c(=O)c2-c2nc3cc4c(cc3[nH]2)C(=O)N(C2CCN(C)CC2)C4)c1C` [compound 159]: the IC50 was 5 to 15 µM in the assay on H929 (multiple myeloma); below 0.5 µM on Jak2; above 15 µM in assay [2]; below 0.5 µM against IGF1R tyrosine kinase; 5 to 15 µM against Alk; below 0.5 µM on InsR.

As to `CN1CCC(N2Cc3cc4nc(-c5c(N[C@@H](CO)Cc6ccccc6)cc[nH]c5=O)[nH]c4cc3C2=O)CC1` [compound 160], the IC50 in the assay on H929 (multiple myeloma) is 5 to 15 µM; against Jak2, 0.5 to 5 µM; in assay [2], above 15 µM; against IGF1R tyrosine kinase, 0.5 to 5 µM; against Alk it was 0.5 to 5 µM; against InsR it was below 0.5 µM.

Regarding `Cc1ccc(Cl)c(OC[C@H](O)CNc2cc[nH]c(=O)c2-c2nc3cc4c(cc3[nH]2)C(=O)N(C2CCN(C)CC2)C4)c1F` [compound 158], the IC50 in the assay with H929 (multiple myeloma) is 5 to 15 µM; on Jak2 it was below 0.5 µM; in assay [2], above 15 µM; at IGF1R tyrosine kinase, below 0.5 µM; against Alk, 5 to 15 µM; at InsR, below 0.5 µM.

`CN1CCC(N2Cc3cc4nc(-c5c(NC[C@@H](O)COc6cccc(C(F)(F)F)c6Cl)cc[nH]c5=O)[nH]c4cc3C2=O)CC1` [compound 154]: the IC50 in the assay on H929 (multiple myeloma) was 5 to 15 µM; at Jak2 it was below 0.5 µM; in assay [2], above 15 µM; against IGF1R tyrosine kinase it was below 0.5 µM; against Alk it was above 15 µM; against InsR, below 0.5 µM.

As for `CN1CCC(N2Cc3cc4nc(-c5c(NC[C@@H](O)COc6c(F)ccc(F)c6Cl)cc[nH]c5=O)[nH]c4cc3C2=O)CC1` [compound 155], the IC50 in the assay on H929 (multiple myeloma) is 5 to 15 µM; at Jak2, below 0.5 µM; in assay [2] it was above 15 µM; on IGF1R tyrosine kinase, below 0.5 µM; at Alk, 5 to 15 µM; at InsR, below 0.5 µM.

Regarding `CN1CCC(N2Cc3cc4nc(-c5c(NC[C@@H](O)COc6cc(C(F)(F)F)ccc6Cl)cc[nH]c5=O)[nH]c4cc3C2=O)CC1` [compound 151], the IC50 is 5 to 15 µM in the assay with H929 (multiple myeloma); below 0.5 µM at Jak2; above 15 µM in assay [2]; below 0.5 µM against IGF1R tyrosine kinase; 5 to 15 µM on Alk; below 0.5 µM at InsR.

Regarding `CN1CCC(N2Cc3cc4nc(-c5c(NC[C@@H](O)COc6c(F)cccc6Cl)cc[nH]c5=O)[nH]c4cc3C2=O)CC1` [compound 153], the IC50 in the assay on H929 (multiple myeloma) was 5 to 15 µM; against Jak2, below 0.5 µM; in assay [2], above 15 µM; against IGF1R tyrosine kinase, below 0.5 µM; against Alk, 5 to 15 µM; against InsR it was below 0.5 µM.

Take `CN1CCC(N2Cc3cc4nc(-c5c(NC[C@@H](O)COc6cc(F)cc(F)c6Cl)cc[nH]c5=O)[nH]c4cc3C2=O)CC1` [compound 152]: the IC50 in the assay with H929 (multiple myeloma) is 5 to 15 µM; against Jak2, below 0.5 µM; in assay [2], above 15 µM; against IGF1R tyrosine kinase it was below 0.5 µM; at Alk, 0.5 to 5 µM; against InsR, below 0.5 µM.
